In patent US20150198597A1, “Method for monitoring PARP activity in cells by PARP activation” (Stichting Het Nederlands Kanker Instituut, priority 2012, published 2015):

Test system: PARP
Details: PBMCs; H2O2 at 0, 12.5, 50, 200 and 800 μM; treated and maintained on ice (0-4° Celsius) for 60 minutes; FIG. 3B
Protocol: Cells were treated on ice (at 0-4° Celsius) and cells were maintained on ice (at 0-4° Celsius) for 60 minutes. Cells were immediately lysed thereafter and PAR levels were measured by using the Trevigen® PARP Pharmacodynamic assay II. The PAR levels (y-axis) are plotted against the H2O2 concentration (x-axis).
The assay was used to quantify the amount of PAR in peripheral blood mononuclear cells (PBMC).
Peripheral Blood Mononuclear Cells (PBMCs) were prepared by drawing 8 ml blood from a subject in a BD vacutainer CPT-citrate tube (RT) at the clinic. Invert the tubes three times to mix the anti-coagulant (1 ml) with the blood and keep the tube at room temperature (RT). Centrifuge for 25 minutes at 1500×g at RT, and invert the tubes three times. Pour the upper layer into a 50 ml Falcon tube on ice and incubate on ice for 5 minutes. Adjust the total volume to 50 ml with ice-cold PBS and centrifuge 10 minutes at 330×g at 4° Celsius. Decant the supernatant and place the tube inverted on filter paper for 2 seconds. Re-suspend the pellet in 10 ml ice-cold PBS. Count the PBMCs with a hema-cytometer and centrifuge 10 minutes at 330×g at 4° Celsius. Re-suspend the pellet at 2×10exp6 PBMC/500 μl in PBS and transfer to a pre-chilled 2.0 ml tube on ice.
For example, cells are suspended at 2×10E6 PBMC/500 μl culture PBS. […]

With `OO` [H2O2, hydrogen peroxide] the PAR levels was “Higher PAR levels were found with increasing H2O2 treatment concentration”.
